Data taken from PMC4456249 (Structure (London, England : 1993), 2015).

How the values were obtained:
CCL5 = conditions: ref Mizumoto et al., 2013; cited from earlier work
NMR = biological target: the molecule itself; assay: NMR

Molecule | Affinity for CCL5 (CCL5) | ratio of dimer-to-monomer (30 uM, 40 °C, without CS444) (NMR) | stoichiometry N (NMR)
chondroitin sulfate [CS] | submicromolar affinities |  | 
dermatan sulfate [DS] | submicromolar affinities |  | 
E66S CCL5 (natural protein) MSPYSSDTTPCCFAYIARPLPRAHIKEYFYTSGKCSNPAVVFVTRKNRQVCANPEKKWVREYINSLSMS |  | ~1 | 2
